Measured values reported in the METLIN SMRT retention time set (Domingo-Almenara et al. 2019).

Test: gradient 5% acetonitrile 3 min, to 50% in 2 min, to 85% in 15 min, held 3 min, 100 µL/min
Conditions: column: Zorbax Extend-C18 2.1 x 50 mm; eluents: water / acetonitrile, 0.1% formic acid
Summary of the method: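 Using water and acetonitrile that each contained 0.1% formic acid, mixtures of ~100 pure standards were separated at 100 μL/min on a Zorbax Extend-C18 column (2.1 × 50 mm, 1.8 μm). The HPLC fed a quadrupole time-of-flight mass spectrometer working in positive and negative ionization mode, with dead and dwell volumes of 40 μL and 900 μL. Data were acquired over 3 months. Retention time was read from computationally picked adduct peaks after manual inspection of each.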

Row | SMILES | RP-LC retention time
1 | COc1cc2c(cc1CNC(=O)C(=O)c1c[nH]c3ccccc13)OCCCO2 | 1320 s
2 | COC(=O)c1c(C)[nH]c(C(=O)N2CCC(CC(=O)NCC3CCCO3)CC2)c1C (stereo unspecified) | 632 s
3 | COc1cc(CNC(=O)c2cnc(-c3ccccc3)nc2-c2ccncc2)cc(OC)c1 | 823 s
4 | CCNC(=O)C1CCCN(c2nc3ncn(CC(=O)Nc4ccc(F)cc4Cl)c(=O)c3s2)C1 (stereo unspecified) | 681 s
5 | COc1ccc(N2CCN(c3cc(SCC(=O)NCc4ccccc4)ncn3)CC2)cc1 | 823 s
6 | CCOc1ccccc1C(=O)N1CCC2(CC1)NCc1ccccc1-n1ccnc12 | 572 s
7 | Cn1c(CN2CCN(C(=O)NCc3ccco3)CC2)nc2cc(C(=O)N3CCCC3)ccc21 | 590 s
8 | CC(=O)c1cccc(NC(=O)CN2C(=O)NC3(CCCCC3)C2=O)c1 | 711 s
9 | CC(C)NC(=O)N1CCOc2ccc(CCC(=O)O)cc2C1 | 671 s
10 | O=C(c1c(OCC2CC2)cc(=O)n2c1CCCCC2)N1CCN(c2ccccn2)CC1 | 563 s
11 | CCC(Oc1ccc(=O)n(-c2ccc(F)cc2)n1)C(=O)NCc1ccc2c(c1)OCO2 (stereo unspecified) | 752 s
12 | Cc1cccc(Sc2nccnc2N2CCCC(C(=O)NCc3ccc(C)o3)C2)c1 (stereo unspecified) | 1060 s
13 | CCN1CCN(c2c(S(=O)(=O)c3ccc(Cl)cc3)cnc3cc4c(cc23)OCCO4)CC1 | 660 s
14 | CCc1cccc(C)c1Nc1c(-c2ccc(OC)cc2)nc2ncccn12 | 788 s
15 | CCCc1cc(SCC(=O)Nc2nccs2)ncn1 | 692 s
16 | CCCNc1cc(N2CCC(CCC(=O)NCc3ccccc3C)CC2)ncn1 | 702 s
17 | O=C(Nc1cnn(-c2ncc(N3CCCC3)cn2)c1)c1ccccc1C(F)(F)F | 817 s
18 | O=C(CCCc1nnc2c(=O)n(-c3ccc(F)cc3)ccn12)NCCc1c[nH]c2ccccc12 | 699 s

Row | SMILES | RP-LC retention time
19 | COc1ccc(-c2nc(Nc3c(C)n[nH]c3C)sc2C)cc1 | 630 s
20 | CN1c2cc(F)ccc2C(=O)NC12CCN(C(=O)Nc1ccccc1F)CC2 | 735 s
21 | O=C(NC1CC1)c1ccccc1OCC1CCN(C(=O)c2cc(F)cc(F)c2)CC1 | 848 s
22 | CCN1CCCn2nc(C3CCN(S(=O)(=O)c4cnc[nH]4)CC3)cc2C1=O | 592 s
23 | COc1ccc(Cl)c2c(=O)c3c([nH]c12)CCN(CC(=O)Nc1cccc(Cl)c1)C3 | 645 s
24 | COc1ccc(C(=O)NC(CC(C)C)C(=O)Nc2nc3ccccc3[nH]2)cc1 (stereo unspecified) | 725 s
25 | Cc1ccc(C(=O)N2CCCC(COc3ccc(C(=O)NC4CC4)cc3)C2)c(C)c1 (stereo unspecified) | 856 s
26 | CC(NC(=O)C1CCCN(c2cnc3nccnc3c2)C1)c1ccccn1 (stereo unspecified) | 565 s
27 | Cn1cc(CN2CCN(C(=O)C3CCN(S(=O)(=O)N4CCCC4)CC3)CC2)c2ccccc21 | 655 s
28 | O=C(Cn1nc2c3cc(F)ccc3ncn2c1=O)Nc1ccc2c(c1)OCO2 | 668 s
29 | Cc1noc(-c2ccc(-n3cnc(C(=O)NC4CCCCC4)c3)nc2)n1 | 883 s
30 | CCCc1noc(-c2ccnc(-n3ncc(C(=O)N4CCCC4)c3C)c2)n1 | 896 s
31 | Cc1nnc(N2CCCC(C(=O)NCCN3CCCC3)C2)c2nn(-c3ccc(Cl)cc3)c(C)c12 (stereo unspecified) | 591 s
32 | CNc1nc(N2CCOCC2)nc2ccccc12 | 582 s
33 | COc1cccc(S(=O)(=O)N2CCC(c3noc(-c4cccnc4)n3)C2)c1 (stereo unspecified) | 846 s
34 | Cc1ccc(-c2cc(C(=O)NC(C)C)n(C)c2)cc1 | 977 s
35 | CCn1cc(CCNC(=O)Nc2cc(F)c(F)c(F)c2)c2cccnc21 | 820 s
36 | COc1ccc(-c2nc3cc(C)ccn3c2NC(=O)CC(C)(C)C)cc1 | 681 s
